Data as given in patent publication US20220041681A1 (MEDIMMUNE LIMITED, priority 2016, published 2022).
Converted amounts (≈) assume the structure as drawn. Like-named read-outs stand apart in the source and are kept apart here. Numbered stars: 1 amine (or outer) side, 2 acyl side, 3 side chain; on linkers, the order of the positions; unused ones are H or OH. Side chains are listed from the residue outwards. Peptide text beside a SMILES is read from it. * marks the point of attachment. γGlu = O=C(O)[C@H](CCC(=O)[*:2])N[*:1]; Palmitoyl = CCCCCCCCCCCCCCCC(=O)*

Assays:
[1] = Peptide solubility in isotonic formulations (DF, BF1, BF2); conditions: formulation DF (DF/BF1 for G797)
Method: Formulations. Peptide solubility was assessed in three different isotonic formulations: • 1. […] Final formulation pH=7.2 • 2. Back up formulation 1 (BF1)=0.05M Tris, 50 nM Arginine/Proline. Final formulation pH=8.0 • 3. […] Final formulation pH=7.0

[2] = type: in vitro ADME, human
Method: (§1) Stability testing of peptides in plasma.
(§2) Stock solutions of the peptides of about 200 μmol/L was prepared by weighing solid peptide into a Eppendorf Low Bind Tube and dissolved in DMSO. 10 μL of stock solutions were added to 990 μL of plasma in an Eppendorf Low Bind Tube, resulting in initial concentrations of the peptides in plasma of about 2 μmol/L. The frozen blank plasma from human, rat and mouse had been thawed and heated to a temperature of 37° C. before addition of the stock solution. The spiked plasma samples were gently mixed and allowed to equilibrate for about 5 minutes before start of experiment. The plasma samples were incubated for 48 hours in a GalaxyR CO2 incubator at 37° C. Sampling (30 μL) was performed at 0, 1, 2, 6.5, 17, 24 and 48 hours. The samples were stored at −70° C. until analysis.
(§3) Plasma samples were assayed as follows. The 30 μL plasma samples were protein precipitated with […] of cold ethanol in a 96-well low bind plate (Eppendorf Protein LoBind). After mixing and centrifugation, 100 μl the supernatant was transferred to a new plate and 1 μl was injected onto an analytical column.
(§4) The analysis was performed using a μLC-system (LC Exigent μLC) coupled to a medium high resolution mass spectrometer (Perkin Elmer PenTOF) with positive electrospray ionisation. The analytical column was a 5 cm, 1 mm Agilent Poroshell (custom made) C18-column with a particle size of 2.7 μm. Flow: 0.1 ml/min using a slow reversed phase gradient. Mobile phases used were acetonitrile and water containing 0.1% formic acid.
The resulting data were manually evaluated for the following degradation products: +1 product (acid) and the DPP IV-cleavage product. Products with +1 mass may arise from deamidation at amide groups of glutamine or at the C-terminus. Cleavage products arise from the action of the protease DPP IV in plasma. Both the degradation of the peptides and formation of peptide products were reported in percentage of the initial peptide concentration. Peaks were integrated and % remaining peptide was calculated: (peak area/peak area 0H)*100. Levels of deamidation and DPP IV cleavage were low for G797 and G933.

[3] = Peptide solubility in buffers (A280); type: physicochemical; conditions: target 1 mg/ml, read-out: Conc. (A280), solubility
Text: G7310 was soluble in a pH range of 4.5 to 8.0.

[4] = Stability testing of peptides in plasma; type: in vitro ADME, mouse
Method: as §1, §2, §3, §4
The resulting data were manually evaluated for the following degradation products: +1 product (acid) and the DPP IV-cleavage product. Products with +1 mass may arise from deamidation at amide groups of glutamine or at the C-terminus. Cleavage products arise from the action of the protease DPP IV in plasma. Both the degradation of the peptides and formation of peptide products were reported in percentage of the initial peptide concentration. Peaks were integrated and % remaining peptide was calculated: (peak area/peak area 0H)*100. […]

human serum albumin = human serum albumin (Homo sapiens, UniProt P02768); assay: Fraction of free peptide calculated from variation in cAMP generation with HSA concentration; conditions: calculated from cAMP generation vs HSA concentration
Chain of human serum albumin (P02768 25-609): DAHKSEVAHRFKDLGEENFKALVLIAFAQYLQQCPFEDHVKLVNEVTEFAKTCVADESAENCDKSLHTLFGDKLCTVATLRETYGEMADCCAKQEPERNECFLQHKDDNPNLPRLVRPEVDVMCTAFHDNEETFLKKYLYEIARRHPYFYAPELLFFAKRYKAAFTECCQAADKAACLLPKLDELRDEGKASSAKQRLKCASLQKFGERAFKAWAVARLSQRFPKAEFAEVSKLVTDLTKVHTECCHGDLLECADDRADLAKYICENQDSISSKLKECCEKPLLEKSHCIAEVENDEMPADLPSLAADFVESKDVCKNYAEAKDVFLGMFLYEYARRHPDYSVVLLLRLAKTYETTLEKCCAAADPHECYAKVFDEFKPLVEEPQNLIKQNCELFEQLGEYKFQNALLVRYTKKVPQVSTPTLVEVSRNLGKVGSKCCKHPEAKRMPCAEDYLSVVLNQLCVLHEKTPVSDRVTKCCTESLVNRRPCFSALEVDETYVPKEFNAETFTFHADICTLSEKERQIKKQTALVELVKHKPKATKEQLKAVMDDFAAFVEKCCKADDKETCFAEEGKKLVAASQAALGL
Text: Data was transformed to % Delta F as described in manufacturer's guidelines and analysed by 4-parameter logistic fit to determine EC50 values. […] To compare the balance of activities at the GLP1R and GlucR between different peptides and across different conditions, these can be correlated using the calculation below, where the EC50's are related to those of the natural ligands.

[5] = type: in vitro ADME, rat
Method: as §1, §2
Plasma samples were assayed as follows. The 30 μL plasma samples were protein precipitated with […] of cold ethanol in a 96-well low bind plate (Eppendorf Protein LoBind). After mixing and centrifugation, 100 μl the supernatant was transferred to a new plate and 1 μl was injected onto an analytical column. […]
The resulting data were manually evaluated for the following degradation products: +1 product (acid) and the DPP IV-cleavage product. […] Peaks were integrated and % remaining peptide was calculated: (peak area/peak area 0H)*100. […]

[6] = test system: diet induced obesity (DIO) mouse model; assay: Diet induced obesity (DIO) mouse model, study A; type: in vivo; conditions: for BeHy / Insulin / Plasma NEFA: day 14
Text: Female C57/Bl6JHsdOla (obtained from Harlan Laboratories. UK) were started on a high fat diet of D12492 (Research Diets, NJ, USA) and a chocolate confection, delicato ball (Delicata Bakverk, Sweden) at 9-11 weeks of age, and were maintained on the diet for 16 weeks prior to arrival to the animal facility, during a three week acclimation period and during drug treatment, caloric content of the two components of the diet is shown in Table 11. The mice were divided into 9 groups (n=5-6), and treatment was started at 29 weeks of age.
The body weight of the animals was monitored daily throughout die dosing period. At day 14, blood samples for the measurement of plasma glucose and insulin from conscious mice were obtained after a 4-hour fasting period. Mice were then anaesthetized using isofluorane and terminal blood was collected from the capillary bed behind the eye. The following parameters were measured: blood chemistry measurements of triglycerides, total cholesterol, non-esterified fatty acids (NEFA), beta-hydroxybutyrate and fibroblast growth factor 21 (FGF21) (Tables 14 and 15 below).

Rat GlucR = molecular target: T1, Rat GlucR (Rattus norvegicus, UniProt P30082); assay: cAMP assay in presence of serum albumin (assay 2), 3.2% rat serum albumin; type: cell-based; conditions: relative potencies vs native ligands
T1 construct: expressed in transfected cells
T1 sequence (P30082 27-485): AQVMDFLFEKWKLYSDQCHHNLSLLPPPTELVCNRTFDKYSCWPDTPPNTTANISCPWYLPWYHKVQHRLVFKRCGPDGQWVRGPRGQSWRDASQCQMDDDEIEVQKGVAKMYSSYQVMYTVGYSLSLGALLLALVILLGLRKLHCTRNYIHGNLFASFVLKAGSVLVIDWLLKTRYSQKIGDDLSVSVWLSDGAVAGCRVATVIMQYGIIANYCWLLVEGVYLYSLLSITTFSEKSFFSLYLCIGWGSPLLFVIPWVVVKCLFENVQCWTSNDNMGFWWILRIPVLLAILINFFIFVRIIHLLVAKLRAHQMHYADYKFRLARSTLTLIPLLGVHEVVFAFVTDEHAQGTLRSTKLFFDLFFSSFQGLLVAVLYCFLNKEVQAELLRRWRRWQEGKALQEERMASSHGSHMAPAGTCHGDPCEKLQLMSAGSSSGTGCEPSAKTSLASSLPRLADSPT
Method: CHO cells with stable recombinant expression of the human, mouse or rat GlucR or GLP-t receptor were cultured in DMEM 10% FBS and geneticin (100 μg/mil). Cryopreserved cell stocks were prepared in 1× cell freezing medium-DMSO serum free (Sigma Aldrich) at 2×10^7/vial and stored at […]. […] Peptides were serially diluted in DMSO and then diluted 100 fold into DMEM containing serum albumin at stated final concentration. […] Cells were added to the assay plates and incubated for 30 min at room temperature. Following incubation the assay was stopped and cAMP levels measured using the HTRF® dynamic d2 cAMP assay kit available from CisBio Bioassays, as per the manufacturer's guidelines. Plates were read on Perkin Elmer ENVISION® fluorescence plate readers. Human and rat serum albumin were purchased from Sigma Aldrich and mouse serum albumin from Equitech Bio Ltd.

CCCCCCCCCCCCCCCC(=O)N[C@@H](CCC(=O)NCCCC[C@H](NC(=O)[C@H](CCCCN)NC(=O)[C@H](CO)NC(=O)[C@H](Cc1ccc(O)cc1)NC(=O)[C@H](CC(=O)O)NC(=O)[C@H](CO)NC(=O)[C@@H](NC(=O)[C@H](Cc1ccccc1)NC(=O)[C@@H](NC(=O)CNC(=O)[C@H](CCC(N)=O)NC(=O)[C@H](CO)NC(=O)[C@@H](N)Cc1c[nH]cn1)[C@@H](C)O)[C@@H](C)O)C(=O)N[C@@H](CC(C)C)C(=O)N[C@@H](CC(=O)O)C(=O)N[C@@H](CO)C(=O)N[C@@H](CCC(=O)O)C(=O)N[C@@H](CCCNC(=N)N)C(=O)N[C@@H](C)C(=O)N[C@@H](CCCNC(=N)N)C(=O)N[C@@H](CC(=O)O)C(=O)N[C@@H](Cc1ccccc1)C(=O)N[C@H](C(=O)N[C@@H](C)C(=O)N[C@@H](Cc1c[nH]c2ccccc12)C(=O)N[C@@H](CC(C)C)C(=O)N[C@H](C(=O)N[C@@H](C)C(=O)NCC(=O)NCC(N)=O)C(C)C)C(C)C)C(=O)O [Peptide G730] (H-HSQGTFTSDYSKK([γGlu-Palmitoyl])LDSERARDFVAWLVAGG-NH2; N-terminus assumed)
Formulation Concentration [1]: 5 mg/mL
% +1 prod [2]: <1%
% DPP cleaved product/+1 DPP cleaved product [2]: <1%
solubility ([3]; Tris buffer, Tris pH 7.5, 100 mM): 0.83 mg/mL (≈ 225 µM)
solubility ([3]; Tris buffer, Tris pH 8.0, 100 mM): 1.1 mg/mL (≈ 298 µM)
solubility ([3]; glutamate buffer, Glutamate pH 4.5, 100 mM): 0.83 mg/mL (≈ 225 µM)
solubility ([3]; phosphate buffer, Phosphate pH 6, 100 mM): 0.14 mg/mL (≈ 37.9 µM)
solubility ([3]; phosphate buffer, Phosphate pH 6.5, 100 mM): 0.83 mg/mL (≈ 225 µM)
solubility ([3]; phosphate buffer, Phosphate pH 7.5, 100 mM): 0.85 mg/mL (≈ 230 µM)
% +1 prod [4]: 15%
% stable peptide ([4]; mouse plasma, 37° C., 24 h): 65%
free peptide at 4.4% HSA (human serum albumin): 0.85%
% DPP cleaved product/+1 DPP cleaved product [5]: 2%
BeHy ([6]; 10 nmol/kg): 426 u mol/l
Insulin ([6]; 10 nmol/kg): 0.4 nM
Plasma NEFA ([6]; 10 nmol/kg): 0.28 Mm
BeHy ([6]; 20 nmol/kg): 750 u mol/l
Insulin ([6]; 20 nmol/kg): 0.2 nM
Plasma NEFA ([6]; 20 nmol/kg): 0.26 Mm
BeHy ([6]; 50 nmol/kg): 1477 u mol/l
Insulin ([6]; 50 nmol/kg): 0.3 nM
Plasma NEFA ([6]; 50 nmol/kg): 0.32 Mm
body weight over the 14 day dosing period ([6]; study A, in words): dose dependent and continuous weight loss
glucose levels at day 14 ([6]; study A, in words): dose-dependent reduction in glucose levels
Rat GlucR/GLP1R Ratio (Rat GlucR): 0.05
